Assay results as given in EP1333824B1, “TREATMENT OF SEXUAL DYSFUNCTION WITH BOMBESIN RECEPTOR ANTAGONISTS” (Warner-Lambert Company LLC, priority 2000, dated 2002).

Test system: Ovariectomised adult female Sprague Dawley rats
Assay: Female rat sexual proceptivity test (time investigating male vs female stimulus)
Assay type: in vivo
Method: Ovariectomised adult female Sprague Dawley rats (180-200g, from Charles River) were housed in groups of 6 in a reversed lighting system of 12h light:dark (lights off 7.00-19.00h). Two weeks after ovariectomy they were used for sexual activity tests. The experiments started at least 5h into the dark period.
Tests were carried out in a circular arena of 90cm diameter, surrounded by a 30cm high wall. Two small cages with wire-mesh front (15x15cm) are fixed into the wall such that the front of the cage is «flush» with the wall and the 2 cages are opposite each other. They contained two stimuli animals: an intact sexually experienced male and a receptive female (ovariectomised, primed with 5µg oestradiol benzoate dissolved in corn oil and injected subcutaneously 48 hours before the test and with 0.5 mg of progesterone four hours before the test). Sexually naive test and control animals were used. Forty eight hours before the tests, both the test and control animals were primed with 5µg oestradiol benzoate. For animals used as positive controls, progesterone (0.5mg/0.1ml) was dissolved in corn oil and administered subcutaneously (s.c.), 4h before the test. Test and control animals were introduced one at a time for 10 minute periods into the arena. During the 10min test, the time that the test or positive control animal spent investigating each stimulus animal was noted. The arena was thoroughly cleaned between animals. The position of the male/female stimuli boxes was randomised between animals, in order to avoid place preference. The difference in the percentage of time spent investigating the male minus the female stimuli was calculated, out of the total time spent investigating stimuli animals. […]
Ovariectomised adult female Sprague Dawley rats (180-200g) were housed in groups of 5 in a reversed lighting system of 12h light:dark (lights off 5.00-17.00h). They were used for the experiments at least two weeks after ovariectomy. Forty eight hours before tests, the animals were primed with oestradiol benzoate (5µg/0.1ml in corn oil, s.c.). On day 1, progesterone (0.5mg/0.1ml, in corn oil, s.c.) was administered to one of the groups 4h before tests, as a positive control. […] The test lasted 10 minutes and was carried out as described before. The difference in the percentage of time spent investigating the male minus the female stimuli was calculated, out of the total time spent investigating stimuli animals. Animals were submitted to a test on day 1 and on day 15. […] On day 15 the test took place again, as described for day 1. […]

Which “percentage of time spent investigating the male stimulus” value (Example 1, i.p., dose-dependent 3mg/kg-10mg/kg, 1h before tests, vs vehicle) does the source give for `COc1ccc(C2(CNC(=O)[C@](C)(Cc3c[nH]c4ccccc34)NC(=O)Nc3ccc([N+](=O)[O-])cc3)CCCCC2)nc1` [Compound (1), (S) 3-(1H-Indol-3-yl)-N-[1-(5-methoxy-pyridin-2-yl)-cyclohexyl-methyl]-2-methyl-2-[3-(4-nitro-phenyl)-ureido]-propionamide] here?
Its value is “increased the percentage of time spent investigating the male stimulus”.

What about the “proceptivity, day 1” value (Example 3, Compound (1) 15mg/kg i.p. 1h before test, progesterone 0.5mg/0.1ml s.c. 4h before, vs vehicle, P<0.01) of the same compound?
Its value is “stimulatory effect on proceptivity”.

And the “body weight or general behaviour” value (Example 3, repeated daily administration 15mg/kg i.p. over 15 days)?
The value was “no changes in body weight or general behaviour”.

And the “MED (increase in percentage of time spent investigating the male stimulus)” value (Example 4, i.c.v., 3-30µg/rat, 10min before tests)?
The value was 10 µg.

What about the “percentage of time spent investigating the male stimulus” value (Example 4, i.c.v., dose-dependent 3-30µg/rat, 10min before tests) of the same compound?
The value was “increased the percentage of time spent investigating the male stimulus”.

What about the “antagonism of the inhibitory effect of NMB on proceptivity” value (Example 5, Compound (1) 15mg/kg i.p. 1h before i.c.v. NMB 100ng, blockade not total at this dose) of the same compound?
The value was “prevented the inhibitory effect of NMB”.
